Laboratory results: patent US6750211B2, “Diimino compounds for use as modulators of cell regulation” (Emory University, priority 1999, dated 2004)

Tested on: J774A.1 cells
Assay: Suppression of the sphingosine "burst" on change to new medium
Type: cell-based, murine
Description: J774A.1 cells (No. TIB 67, a murine macrophage-like transformed cell line) were obtained from the American Type Culture Collection (Rockville, Md.) and grown in DMEM and 10% FBS and sodium bicarbonate (3.7 g/l) in a spinner flask at 37° C. and an atmosphere of 5% CO2. Cells were passaged every two to three days by a 1:4 dilution with fresh medium to a density of approximately 2.5×10^5 cells/ml. Cells were used between passages 3 and 24.
Unless indicated differently, suspended cells were removed from the spinner flask, collected by gentle centrifugation (in a table top centrifuge), resuspended in new medium, added to 60 mm tissue culture dishes at 5 to 7.5×10^5 cells per 2 ml of medium. Under these conditions, the cells adhere to the dish rather than grow in suspension. The cells were incubated at 37° C., 5% CO2, for three days before beginning by removing the conditioned medium and adding fresh medium to initiate the “burst”.
After incubation of the cells, the medium was removed, 0.5 ml of ice-cold methanol added, and the cells scraped from the dishes with a rubber spatula. The plates were scraped again with 0.4 ml of deionized water, followed by 0.4 ml of methanol. Cells and washes were pooled in 13×100 mm test tubes, 200 to 300 pmol of C20-sphinganine added as an internal standard, and the long-chain bases extracted- and analyzed by HPLC (as described by Merrill, A. H., Jr., et al., (1988) Anal. Biochem. 171, 373-381) with C20-sphinganine as an internal standard.

SMILES | IC50 (Mus musculus, J774.A1, titration with purified fraction III added with DMEM, concentration approximated from TNBS amine estimate, FIG. 9, read-out: apparent concentration for 50% suppression of the sphingosine burst) | fold more concentrated than conditioned medium (volume to volume comparison of amount needed to suppress the burst) (compared with conditioned medium) | volume giving 50% suppression of the sphingosine burst (purified fraction III (amine concentration about 200 mM) added with DMEM, FIG. 9) | share of the suppression of the sphingosine burst accounted for by the ammonia concentration of conditioned medium (at most time points, calculated from FIGS. 6A and B, FIG. 7) | suppression of the sphingosine burst (in words) (sphingosine measured after adding medium to J774 cells)
N=C1NC(=N)C(CCCCN)NC1CCCCN (single isomer, unassigned) [fraction III, 2,6-bis-(ω-aminobutyl)-3,5-diimino-piperazine] | 1000 to 3000 µM | greater than 200 fold | 30 µL |  | 
N [NH4^+, reference compound] |  |  |  | greater than 50% | shown to suppress the sphingosine burst
